Laboratory results as given in patent US5304565A, “Nitrogen containing heterocyclic compounds, their production and use” (Takeda Chemical Industries, Ltd., priority 1990, dated 1994).
Each block holds one compound with its values, some of them ahead of it.

Key:
[1] = target: T1, A-II-receptor (membrane fraction of bovine adrenal cortex) (Bos taurus, UniProt P25104); assay: Inhibition of binding of angiotensin-II to angiotensin receptor (radio receptor assay, 125I-A-II); conditions: room temperature, one hour; for inhibition at 1 µM: 10^-6 M; for inhibition at 0.1 µM: 10^-7 M
T1 construct: prepared from the membrane fraction of bovine adrenal cortex; from tissue; host or cells: bovine adrenal cortex, membrane fraction
T1 sequence (P25104 1-359): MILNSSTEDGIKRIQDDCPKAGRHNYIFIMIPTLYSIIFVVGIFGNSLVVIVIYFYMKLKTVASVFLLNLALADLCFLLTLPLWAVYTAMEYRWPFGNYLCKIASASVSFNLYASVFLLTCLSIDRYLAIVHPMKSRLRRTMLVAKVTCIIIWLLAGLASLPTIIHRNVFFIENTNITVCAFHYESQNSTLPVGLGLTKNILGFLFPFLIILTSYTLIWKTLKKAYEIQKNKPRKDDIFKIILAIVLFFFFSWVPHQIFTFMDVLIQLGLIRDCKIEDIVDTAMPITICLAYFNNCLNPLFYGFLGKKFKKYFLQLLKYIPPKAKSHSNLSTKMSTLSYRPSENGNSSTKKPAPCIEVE
Description: An experiment of inhibition on the binding of angiotensin-II (A-II) to A-II-receptor was conducted by modifying the method of Douglas et al. [Endocrinology, 102, 685-696 (1978)]. An A-II-receptor was prepared from the membrane fraction of bovine adrenal cortex.
The compound of the present invention (10^-9 M to 3×10^-5 M) and ^125 I-A-II (1.85 kBq/50 μl) were added to the receptor membrane fraction, and the mixture was incubated at room temperature for one hour. The receptor-bound and free ^125 I-A-II were separated through a filter (Whatman GF/B filter), and the radioactivity of ^125 I-A-II bound to the receptor was measured.

[2] = system: A-II-induced pressor action; assay: Inhibitory effect on pressor action of A-II (100 ng/kg i.v.) after oral administration; format: in vivo, Jcl: SD rats (9 week old, male); conditions: Rattus norvegicus, 30 mg/kg p.o., SD rats, read-out: Pressor Response (30 mg/Kg, p.o.) (% Inhibition)
Description: Jcl: SD rats (9 week old, male) were used. On the day previous to the experiment, these animals were applied with cannulation into the femoral artery and vein under anesthesia with pentobarbital Na. The animals were fasted but allowed free access to drinking water until the experiment was started. Just on the day of conducting the experiment, the artery cannula was connected with a blood-pressure transducer, and the average blood pressure was recorded by means of polygraph. Before administration of the drug, the pressor action due to intravenous administration of A-II (100 ng/kg) as the control was measured. The drugs were orally administered, and then, at each point of the measurement, A-II was administered intravenously, and the pressor action was similarly measured. By comparing the pressor action before and after administration of the drug, the precent inhibition by the drug on A-II-induced pressor action was evaluated.

Structure (SMILES): CCCCc1nc2cc(Cl)ccc2c(=O)n1Cc1ccc(-c2ccccc2-c2nn[nH]n2)cc1 [Working Example 25]
inhibition at 1 µM [1]: 58%
inhibition at 0.1 µM [1]: 18%

Structure (SMILES): CCCCc1ncc([N+](=O)[O-])c(=O)n1Cc1ccc(-c2ccccc2-c2nn[nH]n2)cc1 [Working Example 13, 2-n-Butyl-5-nitro-3-[[2'-(1H-tetrazol-5-yl)biphenyl-4-yl-]methyl]-4(3H)-pyrimidone]
inhibition at 1 µM [1]: 73%
inhibition at 0.1 µM [1]: 30%

Structure (SMILES): CCCCc1nc2cc([N+](=O)[O-])ccc2c(=O)n1Cc1ccc(-c2ccccc2-c2nn[nH]n2)cc1 [Working Example 24]
inhibition at 1 µM [1]: 41%
inhibition at 0.1 µM [1]: 3%

Structure (SMILES): CCCc1cc(=O)c(C(=O)OCC)cn1Cc1ccc(-c2ccccc2-c2nn[nH]n2)cc1 [Working Example 4]
inhibition at 1 µM [1]: 72%
inhibition at 0.1 µM [1]: 31%

Structure (SMILES): CCCCc1nc(CC(=O)OC)cc(=O)n1Cc1ccc(-c2ccccc2-c2nnn[nH]2)cc1 [Working Example 16, 2-n-Butyl-6-methoxycarbonylmethyl-3-[[2'-(1H-tetrazol-5-yl)biphenyl-4-yl]methyl]-4(3H)-pyrimidone]
inhibition at 1 µM [1]: 68%
inhibition at 0.1 µM [1]: 31%

Structure (SMILES): CCCCc1nc(=O)c(C(=O)OCC)cn1Cc1ccc(-c2ccccc2-c2nnn[nH]2)cc1 [Working Example 11, Ethyl 2-n-butyl-4-oxo-1-[[2'-(1H-tetrazol-5-yl)biphenyl-4-yl]methyl]-1,4-dihydropyrimidine-5-carboxylate]
inhibition at 1 µM [1]: 70%
inhibition at 0.1 µM [1]: 29%

Structure (SMILES): CCCCC(=O)Oc1ccc2nc(CCCC)n(Cc3ccc(-c4ccccc4-c4nn[nH]n4)cc3)c(=O)c2c1 [Working Example 29]
inhibition at 1 µM [1]: 92%
inhibition at 0.1 µM [1]: 66%
inhibition in vivo at 30 mg/kg [2]: ≥ 70%

Structure (SMILES): CCCCc1ncc(C(=O)OCC)c(=O)n1Cc1ccc(-c2ccccc2-c2nnn[nH]2)cc1 [Working Example 10, Ethyl 2-n-butyl-4-oxo-3-[[2'-(1H-tetrazol-5-yl)biphenyl-4-yl]methyl]-3,4-dihydropyrimidine-5-carboxylate]
inhibition at 1 µM [1]: 75%
inhibition at 0.1 µM [1]: 32%

Structure (SMILES): CCCCc1nc2ccccc2c(=O)n1Cc1ccc(-c2ccccc2-c2nnn[nH]2)cc1 [Working Example 23, 2-n-Butyl-3-[[2'-(1H-tetrazol-5-yl)biphenyl-4-yl]methyl]-4(3H)-quinazolinon]
inhibition at 1 µM [1]: 85%
inhibition at 0.1 µM [1]: 46%
inhibition in vivo at 30 mg/kg [2]: ≥ 70%

Structure (SMILES): CCCCc1nc2cccc(COC(C)=O)c2c(=O)n1Cc1ccc(-c2ccccc2-c2nn[nH]n2)cc1 [Working Example 32]
inhibition at 1 µM [1]: 93%
inhibition at 0.1 µM [1]: 72%
inhibition in vivo at 30 mg/kg [2]: ≥ 70%

Structure (SMILES): CCCCc1nc2cccc(C)c2c(=O)n1Cc1ccc(-c2ccccc2-c2nn[nH]n2)cc1 [Working Example 26]
inhibition at 1 µM [1]: 74%
inhibition at 0.1 µM [1]: 36%
inhibition in vivo at 30 mg/kg [2]: ≥ 70%

Structure (SMILES): CCCCc1cc(=O)c(C(=O)OCC)cn1Cc1ccc(-c2ccccc2C(=O)O)cc1 [Working Example 1, Ethyl 6-n-butyl-1-[(2'-carboxybiphenyl-4-yl)methyl]-4-oxo-1,4-dihydronicotinate]
inhibition at 1 µM [1]: 67%
inhibition at 0.1 µM [1]: 24%

Structure (SMILES): CCCCc1cc(=O)c(C(=O)OCC)cn1Cc1ccc(-c2ccccc2-c2nnn[nH]2)cc1 [Working Example 2, Ethyl 6-n-butyl-4-oxo-1-[[2'-(1H-tetrazol-5-yl)biphenyl-4-yl]methyl]-1,4-dihydronicotinate]
inhibition at 1 µM [1]: 67%
inhibition at 0.1 µM [1]: 25%

Structure (SMILES): CCCCCc1cc(=O)c(C(=O)OCC)cn1Cc1ccc(-c2ccccc2-c2nn[nH]n2)cc1 [Working Example 3]
inhibition at 1 µM [1]: 71%
inhibition at 0.1 µM [1]: 28%

Structure (SMILES): CCCCc1nc(COC)cc(=O)n1Cc1ccc(-c2ccccc2-c2nnn[nH]2)cc1 [Working Example 8, 2-n-Butyl-3-[[2'-(1H-tetrazol-5-yl)biphenyl-4-yl]methyl]-6-methoxymethyl-4(3H)-pyrimidone]
inhibition at 1 µM [1]: 73%
inhibition at 0.1 µM [1]: 29%

More lines, main results first:

inhibition at 1 µM [1]: 89%
inhibition at 0.1 µM [1]: 59%
Structure (SMILES): CCCCc1nc2ccc(OCC(=O)OC)cc2c(=O)n1Cc1ccc(-c2ccccc2-c2nn[nH]n2)cc1 [Working Example 38]
inhibition in vivo at 30 mg/kg [2]: ≥ 70%

inhibition at 1 µM [1]: 92%
inhibition at 0.1 µM [1]: 76%
Structure (SMILES): CCCc1nc2ccc(OCCO)cc2c(=O)n1Cc1ccc(-c2ccccc2-c2nnn[nH]2)cc1 [Working Example 53, 6-(2-Hydroxyethyloxy)-2-propyl-3-[[2'-(1H-tetrazol-5-yl)biphenyl-4-yl]methyl]-4(3H)-quinazolinone]
inhibition in vivo at 30 mg/kg [2]: ≥ 70%

inhibition at 1 µM [1]: 95%
inhibition at 0.1 µM [1]: 73%
Structure (SMILES): CCCCc1nc2cccc(COC)c2c(=O)n1Cc1ccc(-c2ccccc2-c2nn[nH]n2)cc1 [Working Example 50]

inhibition at 1 µM [1]: 83%
inhibition at 0.1 µM [1]: 48%
Structure (SMILES): CCCc1nc2ccc(OCCOC(=O)c3ccccc3)cc2c(=O)n1Cc1ccc(-c2ccccc2-c2nn[nH]n2)cc1 [Working Example 41]
inhibition in vivo at 30 mg/kg [2]: ≥ 70%

inhibition at 1 µM [1]: 94%
inhibition at 0.1 µM [1]: 75%
Structure (SMILES): CCCCc1nc2ccc(OCCO)cc2c(=O)n1Cc1ccc(-c2ccccc2-c2nnn[nH]2)cc1 [Working Example 55, 2-Butyl-6-(2-hydroxyethyloxy)-3-[[2'-(1H-tetrazol-5-yl)biphenyl-4-yl]-methyl]-4(3H)-quinazolinone]
inhibition in vivo at 30 mg/kg [2]: ≥ 70%

inhibition at 1 µM [1]: 97%
inhibition at 0.1 µM [1]: 77%
Structure (SMILES): CCCCc1nc2ccc(OC)cc2c(=O)n1Cc1ccc(-c2ccccc2-c2nn[nH]n2)cc1 [Working Example 37]
inhibition in vivo at 30 mg/kg [2]: ≥ 70%

inhibition at 1 µM [1]: 88%
inhibition at 0.1 µM [1]: 74%
Structure (SMILES): CCCCc1nc2cccc(CO)c2c(=O)n1Cc1ccc(-c2ccccc2-c2nnn[nH]2)cc1 [Working Example 54, 2-Butyl-5-hydroxymethyl-3-[[2'-(1H-tetrazol-5-yl)biphenyl-4-yl]methyl]-4(3H)-quinazolinone]
inhibition in vivo at 30 mg/kg [2]: ≥ 70%

inhibition at 1 µM [1]: 92%
inhibition at 0.1 µM [1]: 69%
Structure (SMILES): CCCCc1nc2ccc(OCCOC(C)=O)cc2c(=O)n1Cc1ccc(-c2ccccc2-c2nn[nH]n2)cc1 [Working Example 39]
inhibition in vivo at 30 mg/kg [2]: ≥ 70%

inhibition at 1 µM [1]: 95%
inhibition at 0.1 µM [1]: 81%
Structure (SMILES): CCCc1nc2ccc(OCC(=O)N3CCOCC3)cc2c(=O)n1Cc1ccc(-c2ccccc2-c2nn[nH]n2)cc1 [Working Example 48]

inhibition at 1 µM [1]: 88%
inhibition at 0.1 µM [1]: 63%
Structure (SMILES): CCCc1nc2ccc(OCC(=O)NCc3ccccc3)cc2c(=O)n1Cc1ccc(-c2ccccc2-c2nn[nH]n2)cc1 [Working Example 49]
